We go through 2 compounds from ChEMBL document CHEMBL4507274 (2021).

Assay [1] deals with Epidermal growth factor receptor (Homo sapiens) (UniProt P00533). The note with it: Compound concentration 100.0 nM.
For assay [2], the target named is Sigma non-opioid intracellular receptor 1 (Homo sapiens, UniProt Q99720). Briefly: GPCRScan assay: inhibition of Sigma 1. The arrangement: radioligand conc. used [nm] 4.0 – 5.0, parental cells HEKT.
For assay [3], the target named is Rho-associated protein kinase 2 (Rattus norvegicus) (UniProt Q62868). Briefly: (§1) ROCK-2 (r) Upstate kinase activity assay. The note with it: Compound concentration 10.0 uM.
Assay [4] deals with Rho-associated protein kinase 2 (Rattus norvegicus, UniProt Q62868). The assay is described as §1.
Assay [5] has as its target Mitogen-activated protein kinase 8 (Homo sapiens) (UniProt P45983). Put plainly: JNK1alpha1 (h) Upstate kinase activity assay. The note with it: Compound concentration 10.0 uM.
The subject of assay [6] is Tyrosine-protein kinase ABL1 (Homo sapiens), P00519 [T315I]. Briefly: Abl(T315I) (h) Upstate kinase activity assay. The note with it: Compound concentration 10.0 uM.
Another assay relates to SK-N-MC. Put plainly: Neuroepithelioma SK-N-MC cell line MDS Pharma Services Proliferation Assay. It counts as functional, cell-based, Homo sapiens.
For assay [7], the target named is Angiopoietin-1 receptor (Homo sapiens) (UniProt Q02763). Put plainly: Tie2 (h) Upstate kinase activity assay. The note with it: Compound concentration 10.0 uM.
For assay [8], the target named is Tyrosine-protein kinase ABL2 (Homo sapiens) (UniProt P42684). Briefly: Arg (h) Upstate kinase activity assay. The note with it: Compound concentration 10.0 uM.
Assay [9] deals with T1, Protein kinase C epsilon type (Homo sapiens) (UniProt Q02156).
T1 sequence (whole entry): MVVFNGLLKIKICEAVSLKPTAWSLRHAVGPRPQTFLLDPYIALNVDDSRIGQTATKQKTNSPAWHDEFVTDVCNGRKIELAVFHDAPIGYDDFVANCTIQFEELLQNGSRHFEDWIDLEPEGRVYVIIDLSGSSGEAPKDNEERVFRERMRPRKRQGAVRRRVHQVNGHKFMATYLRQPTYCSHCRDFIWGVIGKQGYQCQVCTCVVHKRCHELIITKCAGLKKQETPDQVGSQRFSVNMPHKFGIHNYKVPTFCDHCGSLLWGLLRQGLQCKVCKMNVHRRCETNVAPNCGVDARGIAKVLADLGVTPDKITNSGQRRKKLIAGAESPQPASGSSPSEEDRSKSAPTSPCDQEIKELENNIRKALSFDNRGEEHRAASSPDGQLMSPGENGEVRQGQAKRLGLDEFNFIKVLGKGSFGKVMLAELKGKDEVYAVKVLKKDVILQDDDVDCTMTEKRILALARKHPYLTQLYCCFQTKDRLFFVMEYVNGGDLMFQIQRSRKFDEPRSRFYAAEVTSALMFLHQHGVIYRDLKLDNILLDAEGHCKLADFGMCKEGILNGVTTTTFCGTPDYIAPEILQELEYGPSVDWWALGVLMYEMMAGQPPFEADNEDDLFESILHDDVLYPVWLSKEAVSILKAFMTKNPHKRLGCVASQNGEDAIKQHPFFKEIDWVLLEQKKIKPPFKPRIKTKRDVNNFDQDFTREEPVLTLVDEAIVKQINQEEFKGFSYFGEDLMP
Briefly: PKCepsilon (h) Upstate kinase activity assay. The note with it: Compound concentration 10.0 uM.

The target of assay [10] is Tyrosine-protein kinase SYK (Homo sapiens) (UniProt P43405). Briefly: Syk (h) Upstate kinase activity assay. The note with it: Compound concentration 10.0 uM.
The target of assay [11] is Protein kinase C alpha type (Homo sapiens) (UniProt P17252). Briefly: PKCalpha (h) Upstate kinase activity assay. The note with it: Compound concentration 10.0 uM.
Assay [12] addresses Tyrosine-protein kinase Yes (Homo sapiens) (UniProt P07947). Put plainly: Yes (h) Upstate kinase activity assay. The note with it: Compound concentration 10.0 uM.
The target in assay [13] is CDK7/Cyclin H/MNAT1 (Homo sapiens) (UniProt P51946+P50613+P51948). Put plainly: CDK7/ cyclin H/ MATI (h) Upstate kinase activity assay. In kind it is protein-complex assay. The note with it: Compound concentration 10.0 uM.
Assay [14] concerns the target Casein kinase I isoform delta (Homo sapiens) (UniProt P48730). Briefly: CK1delta (h) Upstate kinase activity assay. The note with it: Compound concentration 10.0 uM.
The target of assay [15] is T2, MAP kinase-activated protein kinase 5 (Homo sapiens) (UniProt Q8IW41).
T2 sequence (whole entry): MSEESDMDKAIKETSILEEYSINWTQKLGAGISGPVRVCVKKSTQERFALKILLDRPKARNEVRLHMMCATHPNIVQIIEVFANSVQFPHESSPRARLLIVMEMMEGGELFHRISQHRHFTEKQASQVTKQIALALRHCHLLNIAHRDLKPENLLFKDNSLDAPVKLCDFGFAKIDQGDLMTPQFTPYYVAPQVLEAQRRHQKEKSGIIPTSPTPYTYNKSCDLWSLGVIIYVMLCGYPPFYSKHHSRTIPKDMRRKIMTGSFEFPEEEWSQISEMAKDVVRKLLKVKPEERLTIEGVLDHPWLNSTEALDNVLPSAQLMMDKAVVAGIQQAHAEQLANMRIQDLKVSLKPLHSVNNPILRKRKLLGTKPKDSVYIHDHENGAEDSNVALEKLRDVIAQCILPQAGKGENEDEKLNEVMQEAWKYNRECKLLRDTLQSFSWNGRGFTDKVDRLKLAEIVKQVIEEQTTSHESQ
Briefly: PRAK (h) Upstate kinase activity assay. The note with it: Compound concentration 10.0 uM.

In assay [16] the target is T3, Calcium/calmodulin-dependent protein kinase type IV (Homo sapiens) (UniProt Q16566).
T3 sequence (whole entry): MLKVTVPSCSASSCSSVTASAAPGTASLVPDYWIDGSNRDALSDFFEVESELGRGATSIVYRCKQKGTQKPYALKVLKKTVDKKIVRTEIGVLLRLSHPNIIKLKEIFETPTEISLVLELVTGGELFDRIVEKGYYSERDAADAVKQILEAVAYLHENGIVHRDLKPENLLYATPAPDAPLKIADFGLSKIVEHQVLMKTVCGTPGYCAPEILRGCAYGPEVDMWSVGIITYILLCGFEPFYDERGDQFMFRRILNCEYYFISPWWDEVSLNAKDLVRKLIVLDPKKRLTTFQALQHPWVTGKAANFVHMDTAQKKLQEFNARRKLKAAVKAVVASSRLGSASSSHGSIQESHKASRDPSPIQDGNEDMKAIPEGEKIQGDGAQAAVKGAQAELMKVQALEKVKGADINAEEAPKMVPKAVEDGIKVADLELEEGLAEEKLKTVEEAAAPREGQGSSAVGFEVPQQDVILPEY
Put plainly: CaMKIV (h) Upstate kinase activity assay. The note with it: Compound concentration 10.0 uM.

Chain of Tyrosine-protein kinase ABL2 (Homo sapiens) (P42684 whole entry): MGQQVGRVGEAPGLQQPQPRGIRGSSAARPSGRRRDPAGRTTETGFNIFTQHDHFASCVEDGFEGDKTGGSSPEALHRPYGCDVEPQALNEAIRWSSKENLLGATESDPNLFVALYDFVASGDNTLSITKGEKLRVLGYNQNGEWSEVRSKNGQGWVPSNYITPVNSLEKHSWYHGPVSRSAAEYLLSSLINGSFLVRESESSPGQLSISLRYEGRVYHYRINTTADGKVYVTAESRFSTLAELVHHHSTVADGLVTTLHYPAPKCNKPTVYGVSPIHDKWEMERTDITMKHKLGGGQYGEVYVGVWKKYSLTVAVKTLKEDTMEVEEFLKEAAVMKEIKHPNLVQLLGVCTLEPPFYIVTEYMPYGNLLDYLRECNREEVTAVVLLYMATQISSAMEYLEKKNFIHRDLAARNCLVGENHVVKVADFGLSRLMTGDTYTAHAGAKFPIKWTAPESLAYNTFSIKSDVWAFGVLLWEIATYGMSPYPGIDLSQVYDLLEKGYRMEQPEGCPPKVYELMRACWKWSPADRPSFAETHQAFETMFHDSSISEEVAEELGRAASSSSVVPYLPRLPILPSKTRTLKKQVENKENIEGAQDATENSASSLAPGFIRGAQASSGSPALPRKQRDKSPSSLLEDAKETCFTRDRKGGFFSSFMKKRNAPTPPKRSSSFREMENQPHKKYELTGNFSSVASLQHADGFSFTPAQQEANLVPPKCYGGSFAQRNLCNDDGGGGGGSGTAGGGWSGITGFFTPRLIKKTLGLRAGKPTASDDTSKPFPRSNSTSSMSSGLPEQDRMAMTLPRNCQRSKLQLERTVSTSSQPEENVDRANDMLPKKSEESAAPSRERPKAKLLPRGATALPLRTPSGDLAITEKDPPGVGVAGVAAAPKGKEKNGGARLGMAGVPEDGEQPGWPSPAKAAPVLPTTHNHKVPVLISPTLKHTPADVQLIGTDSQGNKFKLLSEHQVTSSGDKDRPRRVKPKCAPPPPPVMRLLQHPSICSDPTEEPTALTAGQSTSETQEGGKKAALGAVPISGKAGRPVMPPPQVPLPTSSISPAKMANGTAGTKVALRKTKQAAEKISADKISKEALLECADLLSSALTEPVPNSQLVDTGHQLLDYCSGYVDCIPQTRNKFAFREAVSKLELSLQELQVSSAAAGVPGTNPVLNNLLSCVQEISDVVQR
Chain of Sigma non-opioid intracellular receptor 1 (Q99720 whole entry): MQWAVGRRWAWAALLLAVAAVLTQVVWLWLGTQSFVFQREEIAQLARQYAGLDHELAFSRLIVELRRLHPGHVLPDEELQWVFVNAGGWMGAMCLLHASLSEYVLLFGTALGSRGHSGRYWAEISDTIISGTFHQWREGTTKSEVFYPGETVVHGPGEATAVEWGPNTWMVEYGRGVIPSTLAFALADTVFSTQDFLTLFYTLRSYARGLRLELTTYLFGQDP
Chain of Mitogen-activated protein kinase 8 (Homo sapiens) (P45983 whole entry): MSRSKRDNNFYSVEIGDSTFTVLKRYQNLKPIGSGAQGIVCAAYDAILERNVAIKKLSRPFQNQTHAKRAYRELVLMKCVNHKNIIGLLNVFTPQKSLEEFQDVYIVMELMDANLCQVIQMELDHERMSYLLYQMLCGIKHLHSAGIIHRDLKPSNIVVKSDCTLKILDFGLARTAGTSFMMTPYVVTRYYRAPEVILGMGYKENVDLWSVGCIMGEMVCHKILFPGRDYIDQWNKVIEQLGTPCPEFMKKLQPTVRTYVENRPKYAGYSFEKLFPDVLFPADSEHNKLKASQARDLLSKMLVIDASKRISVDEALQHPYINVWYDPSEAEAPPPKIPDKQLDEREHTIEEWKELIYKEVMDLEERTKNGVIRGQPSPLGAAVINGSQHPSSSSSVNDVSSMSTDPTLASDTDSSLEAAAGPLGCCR
Chain of Casein kinase I isoform delta (Homo sapiens) (P48730 whole entry, looked up, canonical isoform): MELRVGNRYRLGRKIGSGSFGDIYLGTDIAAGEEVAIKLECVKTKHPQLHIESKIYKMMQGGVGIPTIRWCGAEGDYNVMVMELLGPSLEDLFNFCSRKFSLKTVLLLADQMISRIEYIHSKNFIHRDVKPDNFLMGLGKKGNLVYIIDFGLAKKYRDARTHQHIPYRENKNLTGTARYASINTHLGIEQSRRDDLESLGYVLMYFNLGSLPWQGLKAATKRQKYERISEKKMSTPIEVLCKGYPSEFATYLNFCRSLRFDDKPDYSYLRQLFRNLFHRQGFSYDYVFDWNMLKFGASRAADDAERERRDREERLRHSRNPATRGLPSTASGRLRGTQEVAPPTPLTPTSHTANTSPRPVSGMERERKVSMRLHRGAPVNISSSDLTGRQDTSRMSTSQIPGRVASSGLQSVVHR
Chain of Epidermal growth factor receptor (Homo sapiens) (P00533 whole entry): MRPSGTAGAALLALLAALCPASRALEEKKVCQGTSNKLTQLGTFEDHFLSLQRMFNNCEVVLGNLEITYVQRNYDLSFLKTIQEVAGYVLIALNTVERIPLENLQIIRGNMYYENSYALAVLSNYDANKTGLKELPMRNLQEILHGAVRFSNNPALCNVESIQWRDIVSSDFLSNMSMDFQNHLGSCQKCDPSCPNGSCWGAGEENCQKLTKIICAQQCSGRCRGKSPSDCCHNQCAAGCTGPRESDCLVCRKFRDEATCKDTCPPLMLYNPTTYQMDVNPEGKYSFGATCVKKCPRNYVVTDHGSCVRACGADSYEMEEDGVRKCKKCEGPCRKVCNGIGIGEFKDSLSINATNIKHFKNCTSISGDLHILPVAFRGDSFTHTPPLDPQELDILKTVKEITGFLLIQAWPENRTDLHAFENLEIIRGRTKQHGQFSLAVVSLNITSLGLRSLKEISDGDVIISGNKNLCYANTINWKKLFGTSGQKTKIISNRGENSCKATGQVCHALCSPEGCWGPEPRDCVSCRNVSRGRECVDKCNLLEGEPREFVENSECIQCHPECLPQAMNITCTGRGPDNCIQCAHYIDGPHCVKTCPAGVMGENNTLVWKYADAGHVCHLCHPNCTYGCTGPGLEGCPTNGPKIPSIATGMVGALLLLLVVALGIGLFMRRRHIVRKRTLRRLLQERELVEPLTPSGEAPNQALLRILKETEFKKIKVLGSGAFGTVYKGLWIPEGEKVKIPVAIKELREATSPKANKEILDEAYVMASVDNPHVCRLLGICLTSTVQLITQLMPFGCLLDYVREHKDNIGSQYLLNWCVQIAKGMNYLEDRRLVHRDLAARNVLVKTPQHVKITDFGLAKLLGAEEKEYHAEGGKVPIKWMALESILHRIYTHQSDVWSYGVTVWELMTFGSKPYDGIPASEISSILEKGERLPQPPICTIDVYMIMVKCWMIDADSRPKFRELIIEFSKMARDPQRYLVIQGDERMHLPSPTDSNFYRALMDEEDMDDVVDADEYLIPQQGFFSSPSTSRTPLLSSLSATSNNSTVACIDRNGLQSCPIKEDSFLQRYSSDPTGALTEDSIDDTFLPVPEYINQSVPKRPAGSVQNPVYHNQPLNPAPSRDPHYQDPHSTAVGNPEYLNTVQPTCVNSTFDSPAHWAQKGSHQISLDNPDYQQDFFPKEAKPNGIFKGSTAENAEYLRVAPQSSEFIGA
Chain of Tyrosine-protein kinase Yes (Homo sapiens) (P07947 2-543 limits assumed): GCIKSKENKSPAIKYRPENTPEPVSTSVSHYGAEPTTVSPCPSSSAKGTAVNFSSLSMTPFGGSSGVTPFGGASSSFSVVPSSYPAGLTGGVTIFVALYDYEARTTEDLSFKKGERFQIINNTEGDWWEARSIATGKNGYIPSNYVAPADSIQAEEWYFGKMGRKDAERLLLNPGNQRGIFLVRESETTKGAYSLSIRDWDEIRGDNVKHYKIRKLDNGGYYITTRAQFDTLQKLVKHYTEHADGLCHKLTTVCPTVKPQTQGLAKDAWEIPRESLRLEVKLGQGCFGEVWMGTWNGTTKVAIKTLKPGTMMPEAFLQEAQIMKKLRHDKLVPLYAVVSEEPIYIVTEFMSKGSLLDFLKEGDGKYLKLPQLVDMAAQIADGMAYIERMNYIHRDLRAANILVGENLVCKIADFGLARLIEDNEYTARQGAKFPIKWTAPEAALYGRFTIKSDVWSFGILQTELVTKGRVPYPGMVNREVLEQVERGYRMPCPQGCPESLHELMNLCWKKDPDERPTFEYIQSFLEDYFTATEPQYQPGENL

Regarding `Cn1cc(Cl)c2c(Oc3c(F)cc(Nc4cc(Cl)nc(N)n4)cc3F)ccnc21` [BAY-4900], the residual activity (as a rule, the signal under treatment as a percentage of the control signal) in [1] is 97%.

Take `Cc1c[nH]c2nccc(Oc3c(F)cc(Nc4cc(Cl)nc(N)n4)cc3F)c12` [BAY-549]: the inhibition constant Ki (commonly the dissociation constant of the complex between target and ligand, obtained from inhibition or displacement) in [2] was 6.77 µM. In addition, the inhibition (usually the relative decrease from the control value, in per cent) is 102% in assay [3]; 22% in assay [5]; 28% in [6]; 26% in assay [7]; 37% in assay [8]; 28% in assay [9]. For the same compound, the inhibition in assay [10] was 20%; in assay [11] it was 6%; in assay [12], 23%; in assay [13], 57%; in assay [14] it was 65%; in [15] it was 36%. For the same compound, the inhibition in assay [16] was -8%. The IC50 (as a rule, the concentration that inhibits the measured activity by half) was below 1 nM in assay [4] and 7.9 µM in the assay with SK-N-MC (Homo sapiens, SK-N-MC). Moreover, net growth in the assay with SK-N-MC (Homo sapiens, SK-N-MC) stopped (TGI) at 20 µM. In addition, in the assay with SK-N-MC (Homo sapiens, SK-N-MC, read-out: LC50 (the source's name)), the CC50 amounted to 52 µM. Further, the “Mean % growth (n = 2) for 10.0 µM probe concentration” value with SK-N-MC (± SEM 3 % growth) amounted to 38%. For the same compound, the “Mean % growth (n = 2) for 0.1 µM probe concentration” value in the assay on SK-N-MC (± SEM 4 % growth) turned out to be 103%. Moreover, in the assay with SK-N-MC (± SEM 5 % growth), the “Mean % growth (n = 2) for 1.0 µM probe concentration” value was 98%. Moreover, the “Mean % growth (n = 2) for 0.01 µM probe concentration” value in the assay on SK-N-MC (± SEM 6 % growth) is reported as 103%. Also, the “Mean % growth (n = 2) for 100.0 µM probe concentration” value with SK-N-MC (± SEM 8 % growth) is on record as -72%.
